The NIST ThermoML archive (doi:10.1016/j.tca.2014.10.019)
± gives the expanded uncertainty stated by the source.

Assay: mn = molality of the nth substance listed, in mol/kg
Conditions: 100 kPa, Liquid; for speed of sound: Frequency=3 MHz, Sing-around technique in a fixed-path interferometer; for mass density: Vibrating tube method

Compound | speed of sound (293.15 K, m1 = 0.1) [m/s] | speed of sound (293.15 K, m1 = 0.2) [m/s] | speed of sound (293.15 K, m1 = 0.3) [m/s] | mass density (293.15 K, m1 = 0.1) [kg/m3] | mass density (293.15 K, m1 = 0.2) [kg/m3] | mass density (293.15 K, m1 = 0.3) [kg/m3] | speed of sound (298.15 K, m1 = 0.1) [m/s] | speed of sound (298.15 K, m1 = 0.2) [m/s] | speed of sound (298.15 K, m1 = 0.3) [m/s] | mass density (298.15 K, m1 = 0.1) [kg/m3] | mass density (298.15 K, m1 = 0.2) [kg/m3] | mass density (298.15 K, m1 = 0.3) [kg/m3] | speed of sound (303.15 K, m1 = 0.1) [m/s] | speed of sound (303.15 K, m1 = 0.2) [m/s] | mass density (303.15 K, m1 = 0.1) [kg/m3] | mass density (303.15 K, m1 = 0.2) [kg/m3] | mass density (303.15 K, m1 = 0.3) [kg/m3] | speed of sound (308.15 K, m1 = 0.1) [m/s] | speed of sound (308.15 K, m1 = 0.2) [m/s] | speed of sound (308.15 K, m1 = 0.3) [m/s] | other results
[Cl-].[Na+] [sodium chloride] + O | 1489.3 ± 1.4 | 1496.2 ± 1.4 | 1502.3 ± 1.4 | 1002.42 ± 0.16 | 1006.67 ± 0.16 | 1010.64 ± 0.16 | 1503.3 ± 1.4 | 1509.9 ± 1.4 | 1515.8 ± 1.4 | 1001.21 ± 0.16 | 1005.41 ± 0.16 | 1009.34 ± 0.16 | 1515.5 ± 1.4 | 1521.8 ± 1.4 | 999.77 ± 0.16 | 1003.93 ± 0.16 | 1007.81 ± 0.16 | 1525.9 ± 1.4 | 1532 ± 1.4 | 1537.6 ± 1.4 | mass density (308.15 K, m1 = 0.1): 998.12 ± 0.16 kg/m3; mass density (308.15 K, m1 = 0.2): 1002.25 ± 0.16 kg/m3; mass density (308.15 K, m1 = 0.3): 1006.1 ± 0.16 kg/m3; speed of sound (313.15 K, m1 = 0.1): 1534.8 ± 1.4 m/s; speed of sound (313.15 K, m1 = 0.2): 1540.7 ± 1.4 m/s; speed of sound (313.15 K, m1 = 0.3): 1546.2 ± 1.4 m/s; mass density (313.15 K, m1 = 0.1): 996.28 ± 0.16 kg/m3; mass density (313.15 K, m1 = 0.2): 1000.38 ± 0.16 kg/m3; mass density (313.15 K, m1 = 0.3): 1004.2 ± 0.16 kg/m3
[Cl-].[K+] [potassium chloride] + O | 1488.5 ± 1.4 | 1493.8 ± 1.4 | 1497.6 ± 1.4 | 1002.99 ± 0.16 | 1007.72 ± 0.16 | 1013.42 ± 0.17 | 1502.5 ± 1.4 | 1507.3 ± 1.4 | 1511 ± 1.4 | 1001.79 ± 0.16 | 1006.48 ± 0.16 | 1012.13 ± 0.17 | 1514.6 ± 1.4 | 1519.3 ± 1.4 | 1000.36 ± 0.16 | 1005.02 ± 0.16 | 1010.63 ± 0.16 | 1525.1 ± 1.4 | 1529.6 ± 1.4 | 1532.9 ± 1.4 | speed of sound (303.15 K, m1 = 0.3): 1522.8 ± 1.4 m/s; mass density (308.15 K, m1 = 0.1): 998.71 ± 0.16 kg/m3; mass density (308.15 K, m1 = 0.2): 1003.35 ± 0.16 kg/m3; mass density (308.15 K, m1 = 0.3): 1008.94 ± 0.16 kg/m3; speed of sound (313.15 K, m1 = 0.1): 1534 ± 1.4 m/s; speed of sound (313.15 K, m1 = 0.2): 1538.4 ± 1.4 m/s; speed of sound (313.15 K, m1 = 0.3): 1541.6 ± 1.4 m/s; mass density (313.15 K, m1 = 0.1): 996.88 ± 0.16 kg/m3; mass density (313.15 K, m1 = 0.2): 1001.49 ± 0.16 kg/m3; mass density (313.15 K, m1 = 0.3): 1007.02 ± 0.16 kg/m3
